# Measured values published in patent US20120172302A1, “COMPOSITION FOR THE TREATMENT OF BENIGN PROSTATE HYPERPLASIA” (priority 2009, published 2012).
# Square brackets hold non-standard residues; d marks the D form. Peptide text beside a SMILES is read from it. * marks the point of attachment. dPhe(4-NHCONH2) = NC(=O)Nc1ccc(C[C@@H](N)C(=O)O)cc1; Dihydroorotyl(S) = O=C1C[C@@H](C(=O)*)NC(=O)N1; dPhe(4-Cl) = N[C@H](Cc1ccc(Cl)cc1)C(=O)O; Phe(4-NH2) = Nc1ccc(C[C@H](N)C(=O)O)cc1; d2Nal = N[C@H](Cc1ccc2ccccc2c1)C(=O)O; Lys(iPr) = CC(C)NCCCC[C@H](N)C(=O)O; d3Pal = N[C@H](Cc1cccnc1)C(=O)O
# Experiments:
# testosterone = test: Serum testosterone concentration-time profile (LC-MS/MS), clinical trial; type: in vivo, men; conditions: for Mean time to second return of testosterone to baseline interval (after the second administration): only hypothetical (calculated, not measured)
# [1] = in vivo
# patients with BPH [2] = test: Peak (maximal) urinary flow by flowmetry, clinical trial; type: in vivo, men; conditions: for Mean maximal urinary flow: baseline
# Description: (§1) 2] Efficacy Endpoints—the measured Peak Urinary Flow, Post-void Residual Volume, and Prostate Volume.
# Peak urinary flow was determined by flowmetry using the Uropower device (Wiest, World of Medicine AG, Germany). The device fulfilled the International Continence Society standards for maximum urinary flow. The measurement of urinary flow was done in sitting position.
# The Qmax is the maximal urinary flow rate. It is the traditional parameter used in BPH trials and is a good indicator of degree of bladder outlet obstruction (BOO).
# patients with BPH [3] = test: Post-void residual volume by transabdominal ultrasound, clinical trial; type: in vivo, men; conditions: for Mean post-void residual volume: all treatment groups
# Description: as §1
# The Post-void Residual Volume (PVR) was evaluated by transabdominal ultrasound. The urine bladder was sonicated from two directions perpendicular to one another resulting in three cursor positions set by the urologist. The volume was calculated automatically. The investigations were performed by urologists by methods known in the art.
# [4] = 16+16 mg group, after the first administration
# [5] = 16+16 mg group, after the second administration
# [6] = 32+32 mg group, after the first administration
# [7] = 32+32 mg group, after the second administration
# [8] = first dose of the 32+32 mg group combined with the single dose 32 mg data
# [9] = Day 42, all groups, patients violating the maximal uroflow inclusion criterion excluded
smiles,measurement,setting,value
"CC(=O)N[C@H](Cc1ccc2ccccc2c1)C(=O)N[C@H](Cc1ccc(Cl)cc1)C(=O)N[C@H](Cc1cccnc1)C(=O)N[C@@H](CO)C(=O)N[C@@H](Cc1ccc(NC(=O)[C@@H]2CC(=O)NC(=O)N2)cc1)C(=O)N[C@H](Cc1ccc(NC(N)=O)cc1)C(=O)N[C@@H](CC(C)C)C(=O)N[C@@H](CCCCNC(C)C)C(=O)N1CCC[C@H]1C(=O)N[C@H](C)C(N)=O [Degarelix, D-Alaninamide, N-acetyl-3-(2-naphthalenyl)-D-alanyl-4-chloro-D-phenylalanyl-3-(3-pyridinyl)-D-alanyl-L-seryl-4-[[[(4S)-hexahydro-2,6-dioxo-4-pyrimidinyl]carbonyl]amino]-L-phenylalanyl-4-[(aminocarbonyl)amino]-D-phenylalanyl-L leucyl-N6-(1-methylethyl)-L-lysyl-L-prolyl] (Ac-[d2Nal][dPhe(4-Cl)][d3Pal]S[Phe(4-NH2)](Dihydroorotyl(S))[dPhe(4-NHCONH2)]L[Lys(iPr)]P[dA]-NH2)",Mean minimal value of testosterone (Cnadir),testosterone; [4],1.4 ng/mL
same,Mean time of testosterone Cnadir (tnadir),testosterone; [4],1.1 days
same,Mean minimal value of testosterone (Cnadir),testosterone; [5],2.0 ng/mL
same,Mean time of testosterone Cnadir (tnadir),testosterone; [5],4.0 days
same,Lowest mean testosterone level,"testosterone; 16+16 mg group, on Day 1",1.4 ng/mL
same,Mean time to second return of testosterone to baseline interval (after the second administration),testosterone; 16+16 mg group,19.5 (SD=33.9) days
same,Mean area of testosterone concentrations below 0.5 ng/mL,"testosterone; 16+16 mg group, range 0.0-0.0",0.0 ng·days/mL
same,Time for testosterone level to recover above 0.5 ng/mL,"testosterone; 16+16 and 32 mg groups, 4 of the 5 patients",≤ 2 days
same,Time for testosterone level to recover above 0.5 ng/mL,"testosterone; 16+16 and 32 mg groups, the remaining patient of 5",≤ 4 days
same,Mean time for first return of testosterone to baseline interval after the first administration,testosterone; 32+32 mg group,9.1 (SD=2.6) days
same,Number of patients not suppressed below 0.5 ng/mL after the first administration but reaching this level after the second injection,testosterone; 32+32 mg group,Five
same,Number of patients with testosterone below the castration level 0.5 ng/mL at one or more time-points,testosterone; 32+32 mg group,9 patients
same,Number of subjects that had not regained testosterone levels >0.5 ng/mL at Day 42,testosterone; 32+32 mg group,Three
same,Percentage of patients with testosterone below the castration level 0.5 ng/mL at one or more time-points,testosterone; 32+32 mg group,75%
same,Testosterone greatest change from baseline,testosterone; 32+32 mg group,-4.1 ng/mL
same,Time for testosterone level to recover above 0.5 ng/mL,"testosterone; 32+32 mg group, after first administration, 3 of 4 patients",≤ 2 days
same,Mean minimal value of testosterone (Cnadir),testosterone; [6],0.6 ng/mL
same,Mean time of testosterone Cnadir (tnadir),testosterone; [6],3.2 days
same,Mean minimal value of testosterone (Cnadir),testosterone; [7],0.4 ng/mL
same,Mean time of testosterone Cnadir (tnadir),testosterone; [7],4.3 days
same,Lowest mean testosterone level,"testosterone; 32+32 mg group, after the second administration, on Day 17",0.4 ng/mL
same,Number of patients with testosterone below 0.5 ng/mL after the first degarelix administration,"testosterone; 32+32 mg group, of the 9 patients with testosterone <=0.5 ng/mL",Four
same,Mean time to second return of testosterone to baseline interval (after the second administration),testosterone; 32+32 mg group,64.2 (SD=83.5) days
same,Mean area of testosterone concentrations below 0.5 ng/mL,"testosterone; 32+32 mg group, range 0.0-15.3",2.8 ng·days/mL
same,Mean testosterone level,"testosterone; Day 42, 32 mg group",5.3 ng/mL
same,Mean testosterone level,"testosterone; Day 42, 64 mg group",3.0 ng/mL
same,Mean testosterone level,"testosterone; Day 42, 16+16 mg group",4.5 ng/mL
same,Mean testosterone level,"testosterone; Day 42, 32+32 mg group",2.7 ng/mL
same,Number of patients with testosterone below the castration level 0.5 ng/mL at one or more time-points,"testosterone; all groups, of the 50 patients, up to Day 42",22 patients
same,Mean testosterone level,"testosterone; baseline, 32 mg group",5.2 ng/mL
same,Mean testosterone level,"testosterone; baseline, 64 mg group",5.2 ng/mL
same,Mean testosterone level,"testosterone; baseline, 16+16 mg group",5.5 ng/mL
same,Mean testosterone level,"testosterone; baseline, 32+32 mg group",4.5 ng/mL
same,Duration of castration (testosterone below 0.5 ng/mL),"testosterone; first dose of the 32+32 mg group combined with single dose 32 mg, the 8 castrated patients, generally",2 to 4 days
same,Number of patients castrated (testosterone below 0.5 ng/mL),testosterone; [8],8 patients
same,Percentage of patients castrated (testosterone below 0.5 ng/mL),testosterone; [8],33%
same,"Testosterone area below and time to return to the baseline interval, total 64 mg vs total 32 mg",testosterone; groups given a total of 64 mg degarelix compared to the total dose 32 mg,more than 2 fold
same,Degarelix Cmax and AUC values,[1],higher Cmax and AUC values
same,Number of patients with maximal urinary flow decreased vs baseline,"patients with BPH [2]; Day 42, all groups",25 patients
same,Number of patients with maximal urinary flow increased vs baseline,"patients with BPH [2]; Day 42, all groups",24 patients
same,Number of patients with maximal urinary flow unchanged vs baseline,"patients with BPH [2]; Day 42, all groups",1 patient
same,Number of patients with decreased uroflow,patients with BPH [2]; [9],17
same,Number of patients with increased uroflow,patients with BPH [2]; [9],20
same,Mean maximal urinary flow,patients with BPH [2]; 32 mg group,11.7 mL/s
same,Mean maximal urinary flow,patients with BPH [2]; 64 mg group,9.1 mL/s
same,Mean maximal urinary flow,patients with BPH [2]; 16+16 mg group,10.0 mL/s
same,Mean maximal urinary flow,patients with BPH [2]; 32+32 mg group,9.7 mL/s
same,Mean post-void residual volume,patients with BPH [3]; Day 14,decreased
same,Number of patients with post-void residual volume decreased vs baseline,"patients with BPH [3]; Day 42, all groups",33 patients
same,Number of patients with post-void residual volume increased vs baseline,"patients with BPH [3]; Day 42, all groups",17 patients
same,Mean post-void residual volume,patients with BPH [3]; Day 42,lower than the baseline value
